Data: ChEMBL document CHEMBL2396563, “Inhibitory constituents of the heartwood of Dalbergia odorifera on nitric oxide production in RAW 264.7 macrophages” (Bioorg Med Chem Lett, 2013)

Columns and labels:
[1] = Cytotoxicity against mouse RAW264.7 cells by CCK assay; format: cell-based
[2] = Antiinflammatory activity in mouse RAW264.7 cells assessed as inhibition of LPS-induced nitric oxide production after 24 hrs by Griess assay; format: functional, cell-based; conditions: RAW264.7, 24 h

Row | IC50 [2] [µM] | SMILES | Activity [1]
1 | > 100 | COc1cc(OC)c([C@H]2COc3cc(O)ccc3C2=O)cc1OC | Non-toxic
2 | 70.3 | C=C[C@H](c1cccc(O)c1)c1cc(OC)c(OC)cc1OC | Non-toxic
3 | 73.9 | C=C[C@H](c1ccccc1)c1cc(OC)c(OC)cc1O | Non-toxic
4 | > 100 | COc1cc2c(=O)c3ccccc3oc2cc1O | Non-toxic
5 | > 100 | COc1ccc([C@@]2(O)COc3cc(O)ccc3C2=O)c(OC)c1 | Non-toxic
6 | > 100 | COc1ccc(-c2coc3cc(O)ccc3c2=O)c(OC)c1 [2'-METHOXYFORMONETIN] | Non-toxic
7 | 74 | C=C[C@H](c1ccccc1O)c1cc(OC)c(OC)cc1OC [5-O-METHYLLATIFOLIN] | Non-toxic
8 | > 100 | COc1ccc([C@@H]2COc3cc(O)ccc3C2=O)c(OC)c1OC [(3R)-3'-O-METHYLVIOLANONE] | Non-toxic
9 | > 100 | COc1ccc([C@@H]2COc3cc(O)ccc3C2=O)c(OC)c1 [(3R)-SATIVANONE] | Non-toxic
10 | 73.2 | C=C[C@H](c1ccccc1O)c1cc(O)c(OC)cc1OC [LATIFOLIN] | Non-toxic
11 | 45.5 | COc1cc(-c2coc3cc(O)cc(O)c3c2=O)c(OC)cc1O [OLIBERGIN A] | Non-toxic
12 | 53.5 | COc1cc(O)c2c(c1)O[C@H](c1ccccc1)CC2=O [PINOSTROBIN] | Non-toxic

Continued, molecule first:

Row | SMILES | IC50 [2] [µM] | Activity [1]
13 | O=C1C[C@@H](c2cc(O)cc(O)c2)Oc2cc(O)cc(O)c21 | > 100 | Non-toxic
14 | COc1ccc2c(c1)O[C@H]1c3ccc(O)cc3OC[C@@H]21 | 83.7 | Non-toxic
15 | COc1cc2c(cc1O)C(=O)C[C@@H](c1ccc(O)cc1)O2 | > 100 | Non-toxic
16 | COc1cc2oc(=O)cc(-c3ccc(O)c(O)c3)c2cc1O | 45.5 | Non-toxic
17 | O=C(c1ccc(O)cc1O)[C@H](O)Cc1ccc(O)c(O)c1 | > 100 | Non-toxic
18 | O=C(c1ccc(O)cc1O)[C@H](O)Cc1ccc(O)cc1 | > 100 | Non-toxic
19 | COc1ccc([C@@H]2COc3cc(O)ccc3C2=O)c(OC)c1O [(3R)-VIOLANONE] | > 100 | Non-toxic
20 | O=C(/C=C/c1ccc(O)c(O)c1)c1ccc(O)cc1O [BUTEIN] | 35.1 | Non-toxic
21 | O=c1c(-c2ccc(O)cc2)coc2cc(O)ccc12 [DAIDZEIN] | > 100 | Non-toxic
22 | COc1ccc(-c2coc3cc(O)ccc3c2=O)cc1 [FORMONONETIN] | 56.1 | Non-toxic
23 | O=C(/C=C/c1ccc(O)cc1)c1ccc(O)cc1O [ISOLIQUIRITIGENIN] | 72 | Non-toxic
24 | COc1cc2oc(=O)cc(-c3ccc(O)cc3)c2cc1O [MELANETTIN] | 53.2 | Non-toxic
25 | O=c1c(-c2ccc(O)c(O)c2)coc2cc(O)cc(O)c12 [OROBOL] | 43.7 | Non-toxic
26 | N=C(N)NN [PIMAGEDINE] | 16.6 | –
27 | O=C1C[C@@H](c2ccccc2)Oc2cc(O)cc(O)c21 [PINOCEMBRIN] | 18.1 | Non-toxic
